Data set [1] has as its target IL-23 mediated phospho-STAT3 formation in DB cells (Homo sapiens, UniProt Q5VWK5). As to the kind of experiment: Functional inhibition of IL-23 mediated STAT3 signalling (phospho-STAT3 Tyr705 MSD) in DB cells. The class given is cell-based. The settings on record: Table 3-1; DB cells; read-out: IC50 (pSTAT3). From the text:
Functional Inhibition of IL-23 Mediated STAT3 Signalling by Compounds
Upon binding of IL-23, the IL-23R forms a heterodimer signalling complex together with IL-12R β1, which through the JAK2/STAT3 pathway promotes phosphorylation of STAT3 to form phospho-STAT3.
The assay was used to quantify the functional antagonism of a compound and to rank order the inhibitor compounds according to their potency. For compounds tested in this assay, the response was normalized relative to control values to calculate the IC50 and maximal inhibitory response from a concentration response curve of the compound in presence of a fixed concentration of human IL-23.
The assay procedure was as follows. […] Following preincubation of the DB cells with inhibitor for 15 min in a cell incubator (37° C., 5% CO2), 20 μL of the prepared 3× the EC80 of hIL-23 solution was added to each well and incubated for 90 min in a cell incubator (37° C., 5% CO2). For some wells buffer only or IL-23 only corresponding to the EC80 was added to obtain readouts needed for normalization. To terminate the assay, the plate was spun at 1000 G for 5 min to pellet cells, the supernatant removed using an 8-channel manual pipette, and then added 50 μL/well Complete Lysis Buffer from the MSD STAT3 kit (Cat #K150SVD, Mesoscale) to the cell pellet. To completely lyse cells to release phospho-STAT3 for detection, the plate was shaken for 10 min at room temperature (500 rpm) sealed with aluminum foil and placed at −80° C. for a minimum of 15 min. Detection of the phospho-STAT3 level in the cell lysate from the individual wells was determined using the MSD STAT3 kit (Cat #K150SVD, Mesoscale) and read on a Meso QuickPlex SQ 120 plate reader (Mesoscale).
For data analysis raw data counts from the Meso QuickPlex SQ 120 plate reader were normalized relative to the response by the EC80 of hIL-23 alone (no compound added) and the buffer level. Compound potency (IC50) and maximal inhibitory response (% inhibition) were estimated by computer-aided curve fitting using a 4-parameter logistic (4PL) non-linear model.

In data set [2] the target is T1, human IL-23R (Homo sapiens, UniProt Q5VWK5).
T1 construct: UniProtKB—Q5VWK5, amino acids 22-629; secretion signal of the plasmid (Promega N1371); expressed in transfected cells
T1 sequence (Q5VWK5 22-629): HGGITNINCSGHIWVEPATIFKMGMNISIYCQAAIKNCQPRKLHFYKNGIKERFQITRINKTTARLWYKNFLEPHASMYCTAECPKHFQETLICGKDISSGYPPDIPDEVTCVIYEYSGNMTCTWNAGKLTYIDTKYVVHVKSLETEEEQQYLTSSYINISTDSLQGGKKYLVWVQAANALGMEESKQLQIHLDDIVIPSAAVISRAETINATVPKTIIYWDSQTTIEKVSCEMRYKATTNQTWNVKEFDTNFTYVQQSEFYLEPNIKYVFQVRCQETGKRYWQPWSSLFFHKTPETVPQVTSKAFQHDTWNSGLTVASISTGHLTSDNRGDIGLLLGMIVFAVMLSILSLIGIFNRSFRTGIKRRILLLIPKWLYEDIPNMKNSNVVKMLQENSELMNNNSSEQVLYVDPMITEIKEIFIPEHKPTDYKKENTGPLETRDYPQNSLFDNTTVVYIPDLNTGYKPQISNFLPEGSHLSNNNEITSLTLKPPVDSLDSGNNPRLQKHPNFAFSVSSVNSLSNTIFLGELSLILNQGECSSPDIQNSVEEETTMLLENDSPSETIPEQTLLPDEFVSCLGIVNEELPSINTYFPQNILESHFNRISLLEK
Nature of the data set: Binding assay (NanoBRET displacement of fluorophore-labelled reference compound) for estimating binding affinity to human IL-23R. The settings on record: Table 3-1; read-out: Ki hIL-23R.

The nature of data set [3]: Peptide stability in simulated intestinal fluid (SIF). The class given is in vitro ADME. Conditions: pig, simulated intestinal fluid (SIF) with porcine pancreatin, Table 3-2, porcine pancreatin, pH 6.8, 37° C., 10 μM; for remaining at 4 h, 10 μM: read-out: SIF (% remaining 4 h); for remaining at 1 h, 10 μM: read-out: SIF (% remaining 1 h). The method, then:
Determination of Peptide Stability in Simulated Gastric Fluid (SGF) and Simulated Intestinal Fluid (SIF)
SGF was prepared by dissolving sodium chloride (0.2 g) in 50 mL of water. A volume of 0.7 mL of 10 M HCl was added to adjust the pH of the solution to 1.2 and the volume made up to 100 mL with water. […] SIF was prepared by dissolving monobasic potassium phosphate (0.68 g) in 50 mL of water and adjusting the pH to 6.8 with 1 M NaOH. The volume was subsequently made up to 100 mL with water. 200 mg porcine pancreatin (P1625, Sigma Aldrich) was gently dissolved into 20 mL preheated (37° C.) solution (10 g/L) immediately prior to the incubation.
The incubation was performed at 37° C. with gentle shaking. […] After the last timepoint, the sampling plate was mixed for 10 min on a shaking table and centrifuged 10 min at 2200 g. 70 μL resulting supernatant was diluted with 150 μL water, mixed and centrifugated before analysis by liquid chromatography high resolution mass spectrometry. […] Percent remaining at each timepoint was calculated relative to timepoint zero based on absolute peak areas.

Each structure is given as a SMILES string. *1 amine or outer side, *2 acyl side, *3 side chain or, on linkers, in order; H or OH if unused. Where a SMILES comes first, the peptide text is derived from it. Bridges are numbered along the chain shown (N, C = ends). [ ]: non-standard residue; d: D form. Pipz(1-CH2CO,4-CH2CH2NH) = O=C(CN1CCN(CCN[*:1])CC1)[*:2]; 2Nal = N[C@@H](Cc1ccc2ccccc2c1)C(=O)O; AEF = NCCOc1ccc(C[C@H](N)C(=O)O)cc1; αMeL = CC(C)C[C@](C)(N)C(=O)O; CH2COCH2 = O=C(C[*:1])C[*:2]; αMeK = C[C@](N)(CCCCN)C(=O)O; Ahx = NCCCCCC(=O)O

One may read the IC50 as the concentration needed to halve the response being measured. As to `CC(=O)N[C@H]1CCC(=O)NCCCC[C@@H](C(N)=O)NC(=O)[C@H](CC(C)C)NC(=O)[C@H](Cc2c[nH]c3ccccc23)NC(=O)[C@H](Cc2c[nH]c3ccccc23)NC(=O)[C@@H]2CSCC(=O)CSC[C@H](NC(=O)[C@H](CO)NC1=O)C(=O)N[C@@H](Cc1c[nH]c3ccccc13)C(=O)N[C@@H](CCC(N)=O)C(=O)N2` [Compound 12, [Ac]-E(1c)SC(2a)WQC(2a)WWLK(1c)-[NH2]] (HELM PEPTIDE1{[ac].E.S.C.W.Q.C.W.W.L.K.[am]}|CHEM1{[O=C(C[*:1])C[*:2]]}$PEPTIDE1,PEPTIDE1,2:R3-11:R3|PEPTIDE1,CHEM1,4:R3-1:R1|PEPTIDE1,CHEM1,7:R3-1:R2$$$V2.0), the IC50 in data set [1] was above 1000 nM.
One may read the Ki as a measure of affinity in units of concentration, obtained from inhibition or displacement. The term share remaining denotes the share of the starting amount still present when the sample was taken. With `CC(C)C[C@]1(C)NC(=O)[C@H](Cc2ccc3ccccc3c2)NC(=O)[C@H](Cc2ccc(OCCN)cc2)NC(=O)[C@@H]2CSCC(=O)CSC[C@H](NC(=O)[C@H](CO)NC(=O)CN3CCN(CCNC(=O)CC[C@@H](C(=O)N[C@H](CCCNC(=N)N)C(N)=O)NC1=O)CC3)C(=O)N[C@@H](Cc1c[nH]c3ccccc13)C(=O)N[C@@H](CCC(N)=O)C(=O)N2` [Compound 90, [(4-(2-Aminoethyl)-piperazine-1-yl)-acetyl](1c)*SC(2a)WQC(2a)[Y(2-aminoethoxy)][2-Nal][2-Me-Leu]E(1c)[{d}R]-[NH2]] ([Pipz(1-CH2CO,4-CH2CH2NH)]SCWQC[AEF][2Nal][αMeL]E[dR]-NH2; linker 3-6 via CH2COCH2; lactam N-10), the Ki in data set [2] is 0.706 nM. Besides, in data set [3], the fraction remaining at 4 h, 10 μM was 67%.
In the case of `CC(=O)N[C@@H](CC(=O)O)C(=O)N[C@H]1CCC(=O)NCCCC[C@@H](C(=O)N[C@@H](CCCNC(=N)N)C(N)=O)NC(=O)[C@](C)(CC(C)C)NC(=O)[C@H](Cc2c[nH]c3ccccc23)NC(=O)[C@H](Cc2ccc3ccccc3c2)NC(=O)[C@@H]2CSCC(=O)CSC[C@H](NC(=O)[C@H](CCC(N)=O)NC1=O)C(=O)N[C@@H](Cc1c[nH]c3ccccc13)C(=O)N[C@@H](CCC(N)=O)C(=O)N2` [Compound 56, [Ac]-DE(1c)QC(2a)WQC(2a)[2-Nal]W[2-Me-Leu]K(1c)R-[NH2]] (Ac-DEQCWQC[2Nal]W[αMeL]KR-NH2; lactam 2-11; linker 4-7 via CH2COCH2), in data set [1], the IC50 is above 1000 nM.
On the same count and under the same terms, the value for `CC(=O)N[C@@H](CC(=O)O)C(=O)N[C@H]1CCC(=O)NCCCC[C@@H](C(=O)N[C@@H](CCCNC(=N)N)C(N)=O)NC(=O)[C@](C)(CC(C)C)NC(=O)[C@H](Cc2c[nH]c3ccccc23)NC(=O)[C@H](Cc2ccc(O)cc2)NC(=O)[C@@H]2CSCC(=O)CSC[C@H](NC(=O)[C@H](CCC(N)=O)NC1=O)C(=O)N[C@@H](Cc1c[nH]c3ccccc13)C(=O)N[C@@H](CCC(N)=O)C(=O)N2` [Compound 55, [Ac]-DE(1c)QC(2a)WQC(2a)YW[2-Me-Leu]K(1c)R-[NH2]] (HELM PEPTIDE1{[ac].D.E.Q.C.W.Q.C.Y.W.[CC(C)C[C@](C)(N[*:1])C(=O)[*:2]].K.R.[am]}|CHEM1{[O=C(C[*:1])C[*:2]]}$PEPTIDE1,PEPTIDE1,3:R3-12:R3|PEPTIDE1,CHEM1,5:R3-1:R1|PEPTIDE1,CHEM1,8:R3-1:R2$$$V2.0) was above 1000 nM.
On the same count and under the same terms, the value for `CC(=O)N[C@H]1CCCCNC(=O)CC[C@@H](C(=O)N[C@@H](CCCNC(=N)N)C(N)=O)NC(=O)[C@H](CC(C)C)NC(=O)[C@H](Cc2ccc3ccccc3c2)NC(=O)[C@H](Cc2c[nH]c3ccccc23)NC(=O)[C@@H]2CSCC(=O)CSC[C@H](NC(=O)[C@H](CO)NC1=O)C(=O)N[C@@H](Cc1ccc3ccccc3c1)C(=O)N[C@@H](CCC(N)=O)C(=O)N2` [Compound 25, [Ac]-K(1c)SC(2a)[2-Nal]QC(2a)W[2-Nal]LE(1c)R-[NH2]] (Ac-KSC[2Nal]QCW[2Nal]LER-NH2; lactam 1-10; linker 3-6 via CH2COCH2) was above 1000 nM.
Regarding `CC(=O)N[C@H]1CCCCNC(=O)CC[C@@H](C(=O)N[C@H](CCCNC(=N)N)C(N)=O)NC(=O)[C@](C)(CC(C)C)NC(=O)[C@H](Cc2ccc3ccccc3c2)NC(=O)[C@H](Cc2ccc(OCCN)cc2)NC(=O)[C@@H]2CSCC(=O)CSC[C@H](NC(=O)[C@H]([C@@H](C)O)NC1=O)C(=O)N[C@@H](Cc1c[nH]c3ccccc13)C(=O)N[C@@H](CCC(N)=O)C(=O)N2` [Compound 85, [Ac]-K(1c)TC(2a)WQC(2a)[Y(2-aminoethoxy)][2-Nal][2-Me-Leu]E(1c)[{d}R]-[NH2]] (Ac-KTCWQC[AEF][2Nal][αMeL]E[dR]-NH2; lactam 1-10; linker 3-6 via CH2COCH2), in data set [2], the Ki was 0.321 nM. In addition, the fraction remaining at 4 h, 10 μM in data set [3] was 74%.
With `CC(C)C[C@]1(C)NC(=O)[C@H](Cc2ccc3ccccc3c2)NC(=O)[C@H](Cc2ccc(OCCN)cc2)NC(=O)[C@@H]2CSCC(=O)CSC[C@H](NC(=O)[C@H](CO)NC(=O)CCCCCNC(=O)CC[C@@H](C(=O)N[C@H](CCCNC(=N)N)C(N)=O)NC1=O)C(=O)N[C@@H](Cc1c[nH]c3ccccc13)C(=O)N[C@@H](CCC(N)=O)C(=O)N2` [Compound 87, [6-Aminohexanoyl](1c)*SC(2a)WQC(2a)[Y(2-aminoethoxy)][2-Nal][2-Me-Leu]E(1c)[{d}R]-[NH2]] ([Ahx]SCWQC[AEF][2Nal][αMeL]E[dR]-NH2; linker 3-6 via CH2COCH2; lactam N-10), the Ki in data set [2] was 0.439 nM. In addition, the fraction remaining at 1 h, 10 μM in data set [3] is 95%.
As for `CC(=O)N[C@@H](CC(=O)O)C(=O)N[C@H]1CCC(=O)NCCCC[C@@H](C(=O)N[C@@H](CCC(=O)O)C(=O)N[C@@H](CC(N)=O)C(=O)NCC(N)=O)NC(=O)[C@](C)(CCCCN)NC(=O)[C@H](Cc2ccc3ccccc3c2)NC(=O)[C@H](Cc2c[nH]c3ccccc23)NC(=O)[C@@H]2CSCC(=O)CSC[C@H](NC(=O)[C@H](CO)NC1=O)C(=O)N[C@@H](Cc1c[nH]c3ccccc13)C(=O)N[C@@H](CCC(N)=O)C(=O)N2` [Compound 61, [Ac]-DE(1c)SC(2a)WQC(2a)W[2-Nal][2-Me-Lys]K(1c)ENG-[NH2]] (Ac-DESCWQCW[2Nal][αMeK]KENG-NH2; lactam 2-11; linker 4-7 via CH2COCH2), the IC50 in data set [1] was above 1000 nM.
As to `CC(=O)N[C@H]1CCCCNC(=O)CC[C@@H](C(=O)N[C@@H](CCCNC(=N)N)C(N)=O)NC(=O)[C@@H](CC(C)C)NC(=O)[C@H](Cc2ccc3ccccc3c2)NC(=O)[C@H](Cc2ccc(OCCN)cc2)NC(=O)[C@@H]2CSCC(=O)CSC[C@H](NC(=O)[C@H](CO)NC1=O)C(=O)N[C@@H](Cc1c[nH]c3ccccc13)C(=O)N[C@@H](CCC(N)=O)C(=O)N2` [Compound 48, [Ac]-K(1c)SC(2a)WQC(2a)[Y(2-aminoethoxy)][2-Nal][{d}L]E(1c)R-[NH2]] (Ac-KSCWQC[AEF][2Nal][dL]ER-NH2; lactam 1-10; linker 3-6 via CH2COCH2), the Ki in data set [2] was 17 nM. For the same molecule, in data set [3], the fraction remaining at 1 h, 10 μM is 0% and the fraction remaining at 4 h, 10 μM was 0%.

Values taken from patent US20250154198A1, “PEPTIDE INHIBITORS OF INTERLEUKIN-23 RECEPTOR” (Zealand Pharma A/S, priority 2021, published 2025).
